Results: the supplement of paper PMC10307832

Assays:
Test in all cases: relative viability (nuclei count vs DMSO), 5 days (fraction); higher = more cells survive
[1] = compound: CC1=CC(=NN1)NC2=CC(=NC(=N2)/C=C/C3=CC=CC=C3)N4CCN(CC4)C + Nc1ncn([C@H]2C[C@H](O)[C@@H](CO)O2)c(=O)n1 [Decitabine] (partner 2 µM)
Procedure, shortened: (§1)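 Each reported value is a median over duplicate plates. It expresses relative viability: treated-well nuclei count divided by vehicle-well nuclei count. Lung cancer cell lines in 1536-well plates were dosed by pin tool a day after seeding, alone with one drug or with a fixed anchor-drug dose plus five library-drug doses (not always all listed) in √10 steps, and nuclei were counted after 5 days.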

Bortezomib + Olaparib = compound: CC(C)C[C@H](NC(=O)[C@H](Cc1ccccc1)NC(=O)c1cnccn1)B(O)O [Bortezomib] + O=C(c1cc(Cc2n[nH]c(=O)c3ccccc23)ccc1F)N1CCN(C(=O)C2CC2)CC1 [Olaparib] (partner 8 µM)
Procedure, shortened: as §1

Bortezomib + Phenformin = compound: CC(C)C[C@H](NC(=O)[C@H](Cc1ccccc1)NC(=O)c1cnccn1)B(O)O [Bortezomib] + N=C(N)NC(=N)NCCc1ccccc1 [Phenformin] (partner 250 µM)
Procedure, shortened: as §1

[2] = compound: CC1=CC(=NN1)NC2=CC(=NC(=N2)/C=C/C3=CC=CC=C3)N4CCN(CC4)C + COc1cc2c(Oc3ccc(NC(=O)C4(C(=O)Nc5ccc(F)cc5)CC4)cc3F)ccnc2cc1OCCCN1CCOCC1 [Foretinib] (partner 0.25 µM)
Procedure, shortened: as §1

Cell Line | relative viability ([1]; first compound 0.08 µM) | relative viability ([1]; first compound 0.253 µM) | relative viability ([1]; first compound 0.8 µM) | relative viability ([1]; first compound 2.53 µM) | relative viability ([1]; first compound 8 µM) | relative viability (Bortezomib + Olaparib; first compound 0.0002 µM) | relative viability (Bortezomib + Olaparib; first compound 0.000632 µM) | relative viability (Bortezomib + Olaparib; first compound 0.002 µM) | relative viability (Bortezomib + Olaparib; first compound 0.006325 µM) | relative viability (Bortezomib + Olaparib; first compound 0.02 µM) | relative viability (Bortezomib + Phenformin; first compound 0.0002 µM) | relative viability (Bortezomib + Phenformin; first compound 0.000632 µM) | relative viability (Bortezomib + Phenformin; first compound 0.002 µM) | relative viability (Bortezomib + Phenformin; first compound 0.006325 µM) | relative viability (Bortezomib + Phenformin; first compound 0.02 µM) | relative viability ([2]; first compound 0.08 µM) | relative viability ([2]; first compound 0.253 µM) | relative viability ([2]; first compound 0.8 µM) | relative viability ([2]; first compound 2.53 µM) | relative viability ([2]; first compound 8 µM)
HCC-44 | 0.967 | 0.965 | 0.909 | 0.87 | 0.845 | 0.942 | 0.986 | 0.99 | 0.715 | 0.315 | 0.195 | 0.194 | 0.204 | 0.162 | 0.111 | – | – | – | – | –
HCC-78 | 0.585 | 0.624 | 0.694 | 0.472 | 0.292 | 0.928 | 0.662 | 0.398 | 0.233 | 0.258 | 0.699 | 0.641 | 0.676 | 0.712 | 0.364 | 0.582 | 0.666 | 0.54 | 0.492 | 0.233
HCC-366 | 0.35 | 0.368 | 0.318 | 0.0513 | 0.0463 | 0.358 | 0.376 | 0.455 | 0.0607 | 0.0196 | 0.621 | 0.542 | 0.629 | 0.578 | 0.0354 | 0.942 | 1.04 | 0.472 | 0.0589 | 0.0265
HCC-827 | 0.196 | 0.353 | 0.337 | 0.285 | 0.189 | 0.725 | 0.611 | 0.357 | 0.14 | 0.138 | 0.428 | 0.379 | 0.442 | 0.192 | 0.101 | 1.08 | 1.02 | 0.993 | 0.581 | 0.239
HOP-62 | 0.203 | 0.191 | 0.212 | 0.197 | 0.166 | 0.392 | 0.448 | 0.165 | 0.0947 | 0.0397 | 0.661 | 0.625 | 0.54 | 0.151 | 0.0609 | 1.14 | 1.13 | 1.04 | 0.739 | 0.195
IA-LM | – | – | – | – | – | 0.765 | 0.824 | 0.791 | 0.0665 | 0.0149 | – | – | – | – | – | 1.07 | 1.05 | 0.906 | 0.601 | 0.103
LC-2-ad | 0.821 | 0.809 | 0.744 | 0.463 | 0.187 | 0.68 | 0.723 | 0.782 | 0.194 | 0.184 | 0.686 | 0.507 | 0.557 | 0.19 | 0.146 | 0.875 | 0.942 | 0.753 | 0.413 | 0.204
LCLC-97TM1 | 0.176 | 0.22 | 0.244 | 0.182 | 0.0703 | 0.343 | 0.431 | 0.264 | 0.0586 | 0.0773 | 0.426 | 0.403 | 0.433 | 0.257 | 0.159 | 0.911 | 0.954 | 0.961 | 0.296 | 0.132
LCLC-103H | 0.746 | 0.774 | 0.72 | 0.713 | 0.64 | 0.747 | 0.778 | 0.671 | 0.355 | 0.202 | 0.361 | 0.32 | 0.299 | 0.178 | 0.135 | 0.76 | 0.93 | 0.639 | 0.305 | 0.154
LK-2 | 0.215 | 0.327 | 0.274 | 0.175 | 0.0787 | 0.699 | 0.695 | 0.714 | 0.169 | 0.123 | 0.416 | 0.282 | 0.514 | 0.131 | 0.149 | 1.35 | 1.02 | 1 | 0.382 | 0.153
LOU-NH91 | 0.793 | 0.856 | 0.807 | 0.809 | 0.473 | 0.893 | 0.84 | 0.348 | 0.318 | 0.286 | 0.774 | 0.645 | 0.661 | 0.282 | 0.261 | 0.94 | 0.976 | 0.912 | 0.848 | 0.507
LU99A | 0.86 | 0.892 | 0.73 | 0.409 | 0.214 | 0.238 | 0.26 | 0.242 | 0.154 | 0.122 | 0.789 | 0.782 | 0.898 | 0.85 | 0.328 | 0.8 | 0.732 | 0.735 | 0.363 | 0.156
NCI-H522 | 0.593 | 0.685 | 0.69 | 0.601 | 0.391 | 0.62 | 0.618 | 0.744 | 0.347 | 0.313 | 0.58 | 0.618 | 0.573 | 0.62 | 0.448 | – | – | – | – | –
NCI-H1299 | – | – | – | – | – | 0.98 | 0.917 | 1.03 | 0.239 | 0.103 | – | – | – | – | – | 1.04 | 1.06 | 1.1 | 0.4 | 0.186
NCI-H1563 | – | – | – | – | – | – | – | – | – | – | 0.742 | 0.659 | 0.636 | 0.518 | 0.465 | 0.903 | 0.923 | 0.87 | 0.746 | 0.565
NCI-H1623 | – | – | – | – | – | – | – | – | – | – | 0.538 | 0.594 | 0.623 | 0.577 | 0.307 | 0.817 | 0.94 | 0.886 | 0.803 | 0.533
NCI-H1648 | 0.417 | 0.552 | 0.606 | 0.294 | 0.463 | 0.721 | 0.822 | 0.799 | 0.238 | 0.267 | – | – | – | – | – | – | – | – | – | –
NCI-H1703 | – | – | – | – | – | 0.417 | 0.318 | 0.123 | 0.0785 | 0.0739 | – | – | – | – | – | 0.331 | 0.362 | 0.291 | 0.209 | 0.211
NCI-H1792 | 0.435 | 0.556 | 0.377 | 0.332 | 0.0377 | 0.415 | 0.313 | 0.531 | 0.062 | 0.046 | 0.534 | – | 0.173 | 0.0935 | 0.0823 | – | – | – | – | –
NCI-H2228 | – | – | – | – | – | 0.541 | 0.615 | 0.289 | 0.0866 | 0.0966 | 0.271 | 0.31 | 0.257 | 0.0882 | 0.0761 | 0.692 | 0.953 | 0.618 | 0.102 | 0.0419
